Several values for one entry are separate records, joined by “and”; a condition that tells them apart may be missing. Equal entries are not always repeated. Entries after “also recorded” stand apart in the source; their conditions may differ.
Tested on: HHD-transfected RMA-S cells loaded with relevant peptides
Design: species or system HHD mice
Conditions: in vivo, sc

Row | Sequence | lysis in % (maximal lysis observed for each responder mouse)
1 | IISAVVGIL (listed as Homo sapiens) [Her2/neu.654] | (42) %
2 | ITDQVPFSV [gp100.209] | (23) %
3 | VLYRYGSFSV (listed as Homo sapiens) [gp100.476] | (54, 70) %
4 | YMDGTMSQV [Tyrosinase.368-D] | (10) %

Same assay, conditions: mouse, in vivo

Row | Sequence | CTL inducer hierarchy (in words)
5 | IISAVVGIL (listed as Homo sapiens) [Her2/neu.654] | weak
6 | ILTVILGVL (listed as Homo sapiens) [Melan-A/MART-1.32] | inefficient
7 | ITDQVPFSV [gp100.209] | weak
8 | KTWGQYWQV [gp100.154] | strong
9 | LLDGTATLRL [gp100.457] | inefficient
10 | LLGRNSFEV (listed as Homo sapiens) [p53.264] | inefficient; also recorded: poor CTL-induction capacity
11 | MLLAVLYCL (listed as Homo sapiens) [Tyrosinase.1] | inefficient
12 | RMPEAAPPV (listed as Homo sapiens) [p53.65] | intermediate
13 | STPPPGTRV (listed as Homo sapiens) [p53.149] | inefficient
14 | TLGIVCPI (listed as Homo sapiens) [HPV E7.86] | inefficient
15 | VLPDVFIRC (listed as Homo sapiens) [NA17-A.nt38] | intermediate
16 | VLYRYGSFSV (listed as Homo sapiens) [gp100.476] | weak
17 | YLEPGPVTA [gp100.280] | weak
18 | YLSGANLNL (listed as Homo sapiens) [CEA.571] | strong
19 | YMDGTMSQV [Tyrosinase.368-D] | weak
20 | YMNGTMSOV (YMNGTMSV; listed as Homo sapiens) [Tyrosinase.368-N] | intermediate

Same assay, conditions: mouse, in vivo, sc

Row | Sequence | R/T (responder versus tested mice)
21 | YMNGTMSOV (YMNGTMSV; listed as Homo sapiens) [Tyrosinase.368-N] | 4/15

Tested on: HHD-transfected RMA-S cells loaded with relevant peptides
Design: species or system A2A2Kb mice
Conditions: in vivo, sc
Remark: another data set of the same source

Row | Sequence | lysis in % (maximal lysis observed for each responder mouse)
22 | TLGIVCPI (listed as Homo sapiens) [HPV E7.86] | (10, 13) %
23 | VLYRYGSFSV (listed as Homo sapiens) [gp100.476] | (29) %

Same assay, conditions: mouse, in vivo, sc

Row | Sequence | R/T (responder versus tested mice)
24 | YMNGTMSOV (YMNGTMSV; listed as Homo sapiens) [Tyrosinase.368-N] | 0/6

Tested on: HHD-transfected RMA-S target cells loaded with relevant peptides
Design: species or system HHD mice
Conditions: mouse, in vivo

Row | Sequence | lysis in % | CTL response when co-injected with helper peptide (in words)
25 | ITDQVPFSV [gp100.209] | (31, 36, 56) % | –
26 | KTWGQYWQV [gp100.154] | (43, 59, 60, 64, 77. 77, 80, 82, 85) % | stronger responses in a larger proportion of mice
27 | LLDGTATLRL [gp100.457] | (14, 35, 43, 77, 79) % | good CTL responses in a large proportion of mice; also recorded: strong CTL-inducers when associated with a helper peptide
28 | LLGRNSFEV (listed as Homo sapiens) [p53.264] | (37, 64) % | –
29 | MLLAVLYCL (listed as Homo sapiens) [Tyrosinase.1] | (27, 33, 40, 42, 51) % | good CTL responses in a large proportion of mice
30 | RMPEAAPPV (listed as Homo sapiens) [p53.65] | (29, 31, 40, 41, 55) % | stronger responses in a larger proportion of mice
31 | STPPPGTRV (listed as Homo sapiens) [p53.149] | (20, 51, 71) % | –
32 | TLGIVCPI (listed as Homo sapiens) [HPV E7.86] | (34, 48) % | –
33 | VLPDVFIRC (listed as Homo sapiens) [NA17-A.nt38] | (36, 39, 61,64, 71) % | stronger responses in a larger proportion of mice
34 | VLYRYGSFSV (listed as Homo sapiens) [gp100.476] | (20, 22, 59, 63, 75, 79) % | –
35 | YLEPGPVTA [gp100.280] | (12, 16) % | –
36 | YLSGANLNL (listed as Homo sapiens) [CEA.571] | (20, 32, 46) % | less immunogenic
37 | YMDGTMSQV [Tyrosinase.368-D] | (13, 15) % | –
38 | YMNGTMSOV (YMNGTMSV; listed as Homo sapiens) [Tyrosinase.368-N] | (21, 36, 70, 72, 78) % | –

Same assay, conditions: mouse, in vivo, sc

Row | Sequence | R/T (responder versus tested mice)
39 | YMNGTMSOV (YMNGTMSV; listed as Homo sapiens) [Tyrosinase.368-N] | 5/12

Tested on: HHD-transfected RMAS cells loaded with relevant peptides
Design: species or system HHD mice
Conditions: mouse, in vivo, iv

Row | Sequence | lysis in % (highest specific lysis) | lysis in % following a second in vitro restimulation (numbers in parentheses)
40 | VLPDVFIRC (listed as Homo sapiens) [NA17-A.nt38] | 0 (6) % and 3 (5) % and 5 (24) % and 3 (9) % and 6 (7) % and 0 (2) % | 0 (6) % and 3 (5) % and 5 (24) % and 3 (9) % and 6 (7) % and 0 (2) %
41 | YLEPGPVTA [gp100.280] | 0 (1) % and 0 (0) % | 0 (1) % and 0 (0) %
42 | YLSGANLNL (listed as Homo sapiens) [CEA.571] | 4 (1) % and 1 (5) % and 1 (2) % and 0 (0) % and 2 (0) % and 4 (22) % | 4 (1) % and 1 (5) % and 1 (2) % and 0 (0) % and 2 (0) % and 4 (22) %

Tested on: HHD-transfected RMAS cells loaded with relevant peptides
Design: species or system HHD mice
Conditions: mouse, in vivo

Row | Sequence | CTL responses (in words)
43 | YLEPGPVTA [gp100.280] | Some responses of weak to strong magnitude

Tested on: HHD-transfected RMAS cells loaded with relevant peptides
Design: species or system HHD mice
Conditions: mouse, in vivo
Remark: another data set of the same source

Row | Sequence | CTL responses (in words)
44 | YLEPGPVTA [gp100.280] | Some responses of weak to strong magnitude
45 | YMDGTMSQV [Tyrosinase.368-D] | Some responses of weak to strong magnitude

Tested on: peptide-loaded HHD-transfected RMA-S cells
Design: species or system HHD mice
Conditions: mouse, in vivo

Row | Sequence | CTL response against the epitope after polyepitope immunization (in words)
46 | ILTVILGVL (listed as Homo sapiens) [Melan-A/MART-1.32] | No specific lysis; also recorded: did not elicit CTL responses
47 | KTWGQYWQV [gp100.154] | Strong responses
48 | LLDGTATLRL [gp100.457] | Significant responses
49 | MLLAVLYCL (listed as Homo sapiens) [Tyrosinase.1] | No specific lysis; also recorded: did not elicit CTL responses
50 | VLPDVFIRC (listed as Homo sapiens) [NA17-A.nt38] | Strong responses
51 | VLYRYGSFSV (listed as Homo sapiens) [gp100.476] | did not elicit CTL responses
52 | YLEPGPVTA [gp100.280] | No specific lysis; also recorded: did not elicit CTL responses
53 | YMDGTMSQV [Tyrosinase.368-D] | elicited CTL responses depending on mice

Biological target: HLA-A2.1 molecules (Homo sapiens, UniProt P04439, D140Y/D185E/D98H/E176V/E277Q/G131W/G231S/I119V/I121R/I166T/I218V/L300P/L318F/N151K/N90K/P208A/P217A/Q86G/Q94H/R138H/R169H/T345S)
Conditions: not given

Row | Sequence | RA (relative affinity)
54 | YMNGTMSOV (YMNGTMSV; listed as Homo sapiens) [Tyrosinase.368-N] | 2.2
